Data reported in US8148388B2, “2,4 (4,6) pyrimidine derivatives” (Janssen Pharmaceutica, N.V., priority 2004, dated 2012).

Columns and labels:
Assay type in all cases: biochemical
[1] = target: Yes (h) (Homo sapiens, UniProt P07947); test: Yes human kinase assay (glass-fiber filter); conditions: test concentration of 10^−6M; for inhibition at 1 µM: read-out: C11 score (inhibition of Yes human)
Procedure: (§1) In the glass-fiber filter technology the activity of the kinase of interest is measured using an appropriate substrate that is incubated with the aforementioned kinase protein in the presence of (^33P) radiolabeled ATP. (^33P) Phosphorylation of the substrate is subsequently measured as radioactivity bound on a glass fiber-filter.
(§2) All kinases are pre-diluted to a 10× working concentration prior to addition into the assay. The composition of the dilution buffer for each kinase is detailed below.
(§3) In a final reaction volume of 25 μl, Yes (h) (5-10 mU) is incubated with 8 mM MOPS pH 7.0, 0.2 mM EDTA, 0.1 mg/ml poly(Glu, Tyr) 4:1, 10 mM MgAcetate and [γ-^33P-ATP] (specific activity approx. 500 cpm/μmol, concentration as required). The reaction is initiated by the addition of the MgATP mix. After incubation for 40 minutes at room temperature, the reaction is stopped by the addition of 5 μl of a 3% phosphoric acid solution. 10 μl of the reaction is then spotted onto a Filtermat A and washed three times for 5 minutes in 75 mM phosphoric acid and once in methanol prior to drying and scintillation counting.

[2] = target: Abl (h) (Homo sapiens, UniProt P00519); test: Abl human kinase assay (glass-fiber filter); conditions: test concentration of 10^−6M; for inhibition at 1 µM: read-out: C1 score (inhibition of Abl human)
Procedure: as §1, §2
(specific activity approx. 500 cpm/pmol, concentration as required). The reaction is initiated by the addition of the MgATP mix. After incubation for 40 minutes at room temperature, the reaction is stopped by the addition of 5 μl of a 3% phosphoric acid solution. 10 μl of the reaction is then spotted onto a P30 filtermat and washed three times for 5 minutes in 75 mM phosphoric acid and once in methanol prior to drying and scintillation counting.

[3] = target: EGFR (h) (Homo sapiens, UniProt P00533); test: EGFR human kinase assay (glass-fiber filter); conditions: test concentration of 10^−6M; for inhibition at 1 µM: read-out: C4 score (inhibition of EGFR human)
Procedure: as §1, §2
as §3, with “EGFR” for “Yes”, “EDTA, 10 mM MnCl2,” for “EDTA,”, “cpm/pmol,” for “cpm/μmol,”

[4] = target: Lck (h) (Homo sapiens, UniProt P06239); test: Lck human kinase assay (glass-fiber filter); conditions: test concentration of 10^−6M; for inhibition at 1 µM: read-out: C9 score (inhibition of Lck human)
Procedure: (§4) The in vitro inhibition of a panel of kinases was assessed using either the glass-fiber filter technology as described by Davies, S. P. et al., Biochem J. […] In the glass-fiber filter technology the activity of the kinase of interest is measured using an appropriate substrate that is incubated with the aforementioned kinase protein in the presence of (^33P) radiolabeled ATP. (^33P) Phosphorylation of the substrate is subsequently measured as radioactivity bound on a glass fiber-filter. All kinases are pre-diluted to a 10× working concentration prior to addition into the assay. The composition of the dilution buffer for each kinase is detailed below. [table] […] The reaction is initiated by the addition of the MgATP mix. […] 10 μl of the reaction is then spotted onto a P30 filtermat and washed three times for 5 minutes in 75 mM phosphoric acid and once in methanol prior to drying and scintillation counting.

[5] = target: cSRC (h) (Homo sapiens, UniProt P12931); test: cSRC human kinase assay (glass-fiber filter); conditions: test concentration of 10^−6M
Procedure: as §4, with “below.” for “below. [table]”

[6] = target: Fes (h) (Homo sapiens, UniProt P07332); test: Fes human kinase assay (glass-fiber filter); conditions: test concentration of 10^−6M; for inhibition at 1 µM: read-out: C4 score (inhibition of Fes human)
Procedure: as §1, §2
as §3, with “Fes” for “Yes”, “cpm/pmol,” for “cpm/μmol,”

[7] = target: Lyn (h) (Homo sapiens, UniProt P07948); test: Lyn human kinase assay (glass-fiber filter); conditions: test concentration of 10^−6M; for inhibition at 1 µM: read-out: C10 score (inhibition of Lyn human)
Procedure: as §1, §2
In a final reaction volume of […] (h) (5-10 mU) is incubated with 50 mM Tris pH 7.5, 0.1 mM EGTA, 0.1 mM Na3VO4, 0.1% O-mercaptoethanol, 0.1 mg/ml poly(Glu, Tyr) 4:1, 10 mM MgAcetate and [γ-^33P-ATP] (specific activity approx. 500 cpm/pmol, concentration as required). The reaction is initiated by the addition of the MgATP mix. After incubation for 40 minutes at room temperature, the reaction is stopped by the addition of 5 μl of a 3% phosphoric acid solution. 10 μl of the reaction is then spotted onto a Filtennat A and washed three times for 5 minutes in 75 mM phosphoric acid and once in methanol prior to drying and scintillation counting.

[8] = target: Fms (h) (Homo sapiens, UniProt P07333); test: Fms human kinase assay (glass-fiber filter); conditions: test concentration of 10^−6M; read-out: C7 score (inhibition of Fms human)
Procedure: (§5) The in vitro inhibition of a panel of kinases was assessed using either the glass-fiber filter technology as described by Davies, S. P. et al., Biochem J. (2000), 351; p. 95-105.
as §1, §2
as §3, with “Fms” for “Yes”, “250 μM […],” for “0.1 mg/ml poly(Glu, Tyr) 4:1,”, “cpm/pmol,” for “cpm/μmol,”, “P30 filtermat” for “Filtermat A”

[9] = target: Flt3 (h) (Homo sapiens, UniProt P36888); test: Flt3 human kinase assay (glass-fiber filter); conditions: test concentration of 10^−6M; for inhibition at 1 µM: read-out: C6 score (inhibition of Flt3 human)
Procedure: as §5, §1, §2
as §3, with “Flt3” for “Yes”, “50 μM […],” for “0.1 mg/ml poly(Glu, Tyr) 4:1,”, “cpm/pmol,” for “cpm/μmol,”, “P30 filtermat” for “Filtermat A”

[10] = target: GSK3B (h) (Homo sapiens, UniProt P49841); test: GSK3β human kinase assay (glass-fiber filter); conditions: test concentration of 10^−6M
Procedure: as §5, §1, §2
as §3, with “GSK3B” for “Yes”, “20 μM […](p)EDEEE (phospho GS2 peptide),” for “0.1 mg/ml poly(Glu, Tyr) 4:1,”, “cpm/pmol,” for “cpm/μmol,”, “P30 filtermat” for “Filtermat A”, “50” for “75”

Lck (h), sequence (P06239 whole entry): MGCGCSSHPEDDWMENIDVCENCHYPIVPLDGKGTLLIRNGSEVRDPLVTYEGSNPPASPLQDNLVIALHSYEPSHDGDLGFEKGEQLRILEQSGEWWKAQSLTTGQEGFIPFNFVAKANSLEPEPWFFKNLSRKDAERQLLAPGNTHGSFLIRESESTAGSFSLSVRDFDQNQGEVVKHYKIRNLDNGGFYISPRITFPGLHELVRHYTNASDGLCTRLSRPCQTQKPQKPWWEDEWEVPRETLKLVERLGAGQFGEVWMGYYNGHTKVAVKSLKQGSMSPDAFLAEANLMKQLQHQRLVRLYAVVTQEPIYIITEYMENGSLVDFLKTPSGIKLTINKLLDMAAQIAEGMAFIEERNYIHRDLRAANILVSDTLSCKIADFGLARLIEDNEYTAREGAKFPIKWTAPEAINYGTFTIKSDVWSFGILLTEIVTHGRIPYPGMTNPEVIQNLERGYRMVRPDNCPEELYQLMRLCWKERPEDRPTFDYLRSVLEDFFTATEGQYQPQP
Flt3 (h), sequence (P36888 27-993): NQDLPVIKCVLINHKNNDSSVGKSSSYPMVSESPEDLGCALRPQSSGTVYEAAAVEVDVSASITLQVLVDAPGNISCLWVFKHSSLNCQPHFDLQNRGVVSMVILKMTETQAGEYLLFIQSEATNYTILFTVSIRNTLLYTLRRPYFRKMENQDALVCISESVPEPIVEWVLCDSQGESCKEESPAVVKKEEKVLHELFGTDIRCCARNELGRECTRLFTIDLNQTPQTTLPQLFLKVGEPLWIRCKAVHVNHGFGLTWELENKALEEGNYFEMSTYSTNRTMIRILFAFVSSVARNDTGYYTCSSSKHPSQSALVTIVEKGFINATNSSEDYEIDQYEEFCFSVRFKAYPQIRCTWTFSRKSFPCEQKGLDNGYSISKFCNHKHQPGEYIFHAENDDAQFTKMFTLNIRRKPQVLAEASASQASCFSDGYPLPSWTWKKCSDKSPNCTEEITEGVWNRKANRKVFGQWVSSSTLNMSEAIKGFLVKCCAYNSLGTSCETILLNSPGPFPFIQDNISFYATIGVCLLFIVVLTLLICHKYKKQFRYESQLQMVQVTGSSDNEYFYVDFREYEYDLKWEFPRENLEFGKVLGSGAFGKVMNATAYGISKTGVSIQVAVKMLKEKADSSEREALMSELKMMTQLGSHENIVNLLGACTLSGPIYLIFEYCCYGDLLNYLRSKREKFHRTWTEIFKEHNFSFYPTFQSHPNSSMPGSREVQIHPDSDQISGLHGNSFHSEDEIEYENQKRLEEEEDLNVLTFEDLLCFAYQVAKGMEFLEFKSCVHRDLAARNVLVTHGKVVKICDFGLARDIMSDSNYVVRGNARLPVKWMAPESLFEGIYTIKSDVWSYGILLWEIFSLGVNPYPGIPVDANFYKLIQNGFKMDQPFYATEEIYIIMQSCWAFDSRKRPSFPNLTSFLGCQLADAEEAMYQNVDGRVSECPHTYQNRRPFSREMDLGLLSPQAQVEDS
Abl (h), sequence (P00519 whole entry): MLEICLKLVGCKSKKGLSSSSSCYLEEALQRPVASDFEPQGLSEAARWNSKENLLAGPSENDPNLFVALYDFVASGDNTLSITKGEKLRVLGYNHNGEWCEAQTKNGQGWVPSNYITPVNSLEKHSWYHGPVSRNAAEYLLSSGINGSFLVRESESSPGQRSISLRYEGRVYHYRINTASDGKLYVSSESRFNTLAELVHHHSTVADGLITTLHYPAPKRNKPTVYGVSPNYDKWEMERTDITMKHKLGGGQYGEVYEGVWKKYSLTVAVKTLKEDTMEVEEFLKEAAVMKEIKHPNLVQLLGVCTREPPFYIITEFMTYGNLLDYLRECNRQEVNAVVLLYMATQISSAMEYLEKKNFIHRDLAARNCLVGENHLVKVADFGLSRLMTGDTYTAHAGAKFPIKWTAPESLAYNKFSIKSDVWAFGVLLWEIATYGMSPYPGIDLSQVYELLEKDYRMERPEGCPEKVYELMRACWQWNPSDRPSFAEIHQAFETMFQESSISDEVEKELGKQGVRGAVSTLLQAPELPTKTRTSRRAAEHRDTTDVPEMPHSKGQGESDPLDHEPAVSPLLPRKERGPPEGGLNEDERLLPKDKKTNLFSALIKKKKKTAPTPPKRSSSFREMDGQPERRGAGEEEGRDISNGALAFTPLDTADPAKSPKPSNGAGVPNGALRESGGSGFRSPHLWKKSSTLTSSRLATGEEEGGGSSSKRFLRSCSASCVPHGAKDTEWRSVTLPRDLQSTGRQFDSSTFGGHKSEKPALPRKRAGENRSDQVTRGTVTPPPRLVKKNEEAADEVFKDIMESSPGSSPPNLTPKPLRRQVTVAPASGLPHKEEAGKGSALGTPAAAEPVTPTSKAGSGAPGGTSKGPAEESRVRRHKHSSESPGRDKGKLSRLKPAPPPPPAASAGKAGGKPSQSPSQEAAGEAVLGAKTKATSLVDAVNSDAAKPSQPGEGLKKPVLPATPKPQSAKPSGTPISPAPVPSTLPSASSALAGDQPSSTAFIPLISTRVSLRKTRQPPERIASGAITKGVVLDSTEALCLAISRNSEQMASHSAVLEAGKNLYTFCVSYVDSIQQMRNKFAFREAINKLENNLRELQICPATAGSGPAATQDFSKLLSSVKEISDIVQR
Lyn (h), sequence (P07948 whole entry): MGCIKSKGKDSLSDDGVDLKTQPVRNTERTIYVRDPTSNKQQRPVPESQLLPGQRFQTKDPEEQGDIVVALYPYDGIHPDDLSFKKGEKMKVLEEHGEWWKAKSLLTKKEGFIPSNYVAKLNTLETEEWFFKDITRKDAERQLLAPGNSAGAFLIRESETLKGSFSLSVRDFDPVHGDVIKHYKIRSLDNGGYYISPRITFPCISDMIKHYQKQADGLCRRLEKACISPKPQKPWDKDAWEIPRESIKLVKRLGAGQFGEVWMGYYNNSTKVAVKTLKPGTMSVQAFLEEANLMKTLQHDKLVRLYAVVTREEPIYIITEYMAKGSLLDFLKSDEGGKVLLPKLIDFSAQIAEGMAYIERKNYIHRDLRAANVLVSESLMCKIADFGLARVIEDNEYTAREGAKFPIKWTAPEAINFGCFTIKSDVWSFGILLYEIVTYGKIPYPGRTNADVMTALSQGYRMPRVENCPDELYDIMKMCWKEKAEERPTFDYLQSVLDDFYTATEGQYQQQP
EGFR (h), sequence (P00533 25-1210): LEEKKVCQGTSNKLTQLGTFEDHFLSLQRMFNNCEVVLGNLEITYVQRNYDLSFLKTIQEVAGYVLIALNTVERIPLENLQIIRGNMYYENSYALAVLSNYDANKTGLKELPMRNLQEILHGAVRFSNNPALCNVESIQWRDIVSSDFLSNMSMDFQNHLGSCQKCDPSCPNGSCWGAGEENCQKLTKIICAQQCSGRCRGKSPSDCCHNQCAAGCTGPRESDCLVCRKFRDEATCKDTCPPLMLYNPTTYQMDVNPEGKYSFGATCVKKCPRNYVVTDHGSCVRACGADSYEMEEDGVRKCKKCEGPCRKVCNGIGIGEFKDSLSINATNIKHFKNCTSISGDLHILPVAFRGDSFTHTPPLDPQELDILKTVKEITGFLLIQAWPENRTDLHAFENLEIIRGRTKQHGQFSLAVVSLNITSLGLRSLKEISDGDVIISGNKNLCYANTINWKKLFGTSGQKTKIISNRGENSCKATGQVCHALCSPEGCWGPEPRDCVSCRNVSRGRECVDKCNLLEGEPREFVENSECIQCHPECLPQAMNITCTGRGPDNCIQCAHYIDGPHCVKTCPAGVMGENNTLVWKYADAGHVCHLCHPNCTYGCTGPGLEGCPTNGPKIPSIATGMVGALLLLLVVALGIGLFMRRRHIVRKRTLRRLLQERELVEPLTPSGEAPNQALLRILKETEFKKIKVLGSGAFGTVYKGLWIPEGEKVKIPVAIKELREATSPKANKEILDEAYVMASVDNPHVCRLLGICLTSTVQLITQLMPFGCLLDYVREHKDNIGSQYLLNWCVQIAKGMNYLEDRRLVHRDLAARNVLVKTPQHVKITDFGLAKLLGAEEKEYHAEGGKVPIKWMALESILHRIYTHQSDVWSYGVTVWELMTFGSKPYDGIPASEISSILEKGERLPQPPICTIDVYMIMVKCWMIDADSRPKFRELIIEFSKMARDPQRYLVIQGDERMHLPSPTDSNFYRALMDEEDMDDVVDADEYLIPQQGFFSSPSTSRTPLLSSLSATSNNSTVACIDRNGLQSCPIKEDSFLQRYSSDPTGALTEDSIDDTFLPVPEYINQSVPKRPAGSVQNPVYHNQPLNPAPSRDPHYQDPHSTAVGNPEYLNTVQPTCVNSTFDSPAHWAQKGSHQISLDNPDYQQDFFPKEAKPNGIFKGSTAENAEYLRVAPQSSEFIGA
Yes (h), sequence (P07947 whole entry): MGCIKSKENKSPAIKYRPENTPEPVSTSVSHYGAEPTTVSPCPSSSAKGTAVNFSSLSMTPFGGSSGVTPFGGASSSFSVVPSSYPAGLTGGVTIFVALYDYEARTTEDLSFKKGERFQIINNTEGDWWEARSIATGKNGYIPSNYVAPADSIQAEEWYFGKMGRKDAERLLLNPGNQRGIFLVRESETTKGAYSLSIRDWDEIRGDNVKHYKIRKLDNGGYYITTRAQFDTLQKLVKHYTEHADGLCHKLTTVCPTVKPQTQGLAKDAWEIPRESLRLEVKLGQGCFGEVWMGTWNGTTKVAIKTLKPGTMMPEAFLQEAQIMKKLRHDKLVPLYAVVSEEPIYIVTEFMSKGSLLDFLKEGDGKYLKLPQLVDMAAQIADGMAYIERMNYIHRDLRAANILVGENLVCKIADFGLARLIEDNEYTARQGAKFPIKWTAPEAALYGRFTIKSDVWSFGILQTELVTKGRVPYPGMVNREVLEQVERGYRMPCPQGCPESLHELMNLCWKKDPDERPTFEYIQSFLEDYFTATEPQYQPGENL

| SMILES | C11 score (inhibition of Yes human) [1] | C4 score (inhibition of EGFR human) [3] | C9 score (inhibition of Lck human) [4] | inhibition at 1 µM [1] | inhibition at 1 µM [2] | inhibition at 1 µM [3] | inhibition at 1 µM [4] | inhibition at 1 µM [8] | inhibition at 1 µM [9] | inhibition at 1 µM [6] | inhibition at 1 µM [7] | also measured |
| --- | --- | --- | --- | --- | --- | --- | --- | --- | --- | --- | --- | --- |
| COc1ccc2cc1OCCCNC(=O)[C@H](CC(C)C)NC(=O)Cc1ccc(Cl)cc1Nc1cc(ncn1)N2 [Compound 12, 6, 2:12,8-dimetheno-7H-13,1,3,5,7,17,20-benzoxahexaazacyclotetracosine-18,21-dione, 25-chloro-1,14,15,16,17,19,20,22-octahydro-11-methoxy-19-(2-methylpropyl)-, (19S)-] | 4 (Score 4=>80% inhibition) | 4 (Score 4=>80% inhibition) | 4 (Score 4=>80% inhibition) |  |  |  |  |  |  |  |  | C1 score (inhibition of Abl human) [2]: 2 (Score 2=30-60% inhibition); C3 score (inhibition of cSRC human) [5]: 4 (Score 4=>80% inhibition); C4 score (inhibition of Fes human) [6]: 2 (Score 2=30-60% inhibition); C10 score (inhibition of Lyn human) [7]: 4 (Score 4=>80% inhibition) |
| N#Cc1cnc2nc1Nc1cccc(c1)C(=O)NCCCCCOc1cccc(c1)N2 [Compound 18, 21-oxa-2,4,8,15,28-pentaazatetracyclo[20.3.1.1~3,7~.1~9,13~]octacosa-1(26),3,5,7(28),9,11,13(27),22,24-nonaene-6-carbonitrile, 14-oxo-] |  |  |  | 10 to 30% | 10 to 30% | 10 to 30% | 10 to 30% | 30 to 60% | 30 to 60% | 10 to 30% | 30 to 60% |  |
| O=C1NCCCCCCOc2cccc(c2)Nc2ccnc(n2)Nc2cccc1c2 [Compound 21, 14-oxa-2,4,8,21,29-pentaazatetracyclo[21.3.1.1~3,7~.1~9,13~]nonacosa-1(27),3,5,7(29),9,11,13(28),23,25-nonaen-22-one] |  |  |  | 10 to 30% | 10 to 30% |  | 30 to 60% | 30 to 60% | 60 to 80% |  | 10 to 30% | inhibition at 1 µM ([5]; read-out: C3 score (inhibition of cSRC human)): 10 to 30%; inhibition at 1 µM ([10]; read-out: C8 score (inhibition of GSK3β human)): 10 to 30% |
| O=C1COc2cccc(c2)Nc2nccc(n2)Nc2cccc(c2)CN1 [Compound 23, 18-oxa-2,4,8,15,25-pentaazatetracyclo[17.3.1.1~3,7~.1~9,13~]pentacosa-1(23),3,5,7(25),9,11,13(24),19,21-nonaen-16-one] |  |  |  |  | 10 to 30% |  |  |  | 30 to 60% | 10 to 30% |  |  |
| COc1cc2cc(c1)OCCCCCCOc1ccc(Br)cc1Nc1cc(ncn1)N2 [Compound 40, 1H,7H-6,2: 8,12-dimetheno-13,20,1,3,5,7-benzodioxatetraazacyclodocosine, 23-bromo-14,15,16,17,18,19-hexahydro-10-methoxy-] | 4 (Score 4=>80% inhibition) | 4 (Score 4=>80% inhibition) | 1 (Score 1=10-30% inhibition) |  |  |  |  |  |  |  |  | C6 score (inhibition of Flt3 human) [9]: 1 (Score 1=10-30% inhibition); C8 score (inhibition of GSK3β human) [10]: 1 (Score 1=10-30% inhibition) |
| O=C1CCc2cccc(c2)Nc2cc(ncn2)Nc2cccc(c2)CN2CCN1CC2 [Compound 43, 1,8,10,12,14,23-hexaazapentacyclo[21.2.2.1~3,7~.1~9,13~.1~15,19~]triaconta-3,5,7(30),9,11,13(29),15,17,19(28)-nonaen-22-one] |  |  |  | 10 to 30% |  | 30 to 60% | 10 to 30% | 30 to 60% | 30 to 60% |  | 30 to 60% |  |
